Test results as given in article PMC8140105 (Scientific Reports, 2021).

What was measured:
BV-2 microglia cells = assay: IL-6 and TNFα determination (ELISA); format: cell-based, murine; details: BV-2 cells, increasing concentrations, 20 h, ELISA of cell-free supernatant, n = 6
Experimental: BV-2 cells were a kind gift from Prof. Alba Minelli and were grown in RPMI medium supplemented with 10% fetal bovine serum (FBS) and 1% penicillin-streptromycin solution (Life Technologies, Belgium). The cells were cultured in culture flasks (Greiner, Belgium) in an incubator set at 37 °C and 5% CO2. When confluent, cells were detached using a cell scraper and diluted 1:20 approximately every 4 days. Experiments were performed in serum-free DMEM without phenol red.
To investigate the microglia activating properties of the peptide, IL-6 and TNFα levels were determined in cell-free supernatants of BV-2 microglia cells after treatment. BV-2 cells (2 × 10^5 cells/well) were seeded in 24-well plates and treated with peptide for 20 h. ELISA was performed according to the supplier’s protocol (eBioscience, Vienna, Austria). Briefly, after incubation with biotinylated detection antibody, avidin-HRP conjugate and subsequently chromogenic tetramethylbenzidine (TMB) substrate were added. Absorbance was measured at 450 nm and 570 nm using the Multiskan Ascent 354 microplate reader (Thermofisher, Waltham, USA). Concentrations were determined using the standard curve generated using known concentrations of TNFα and IL-6.

BV-2 cells [1] = assay: Morphological analysis (ameboid versus branched cells); format: cell-based, murine; details: 20 h, n = 6
Experimental: We investigated the morphology since microglia change their morphology from a branched structure to a more round, ameboid structure after activation. BV-2 cells were seeded in 1 × 10^4 cells/well in a 24-well plate (360 µL); this way direct cell–cell contacts, which have an influence on morphology, are avoided. Four hours post-seeding, cells were treated with 40 µL peptide, placebo (H2O), medium or positive control (LPS 1 µg/mL). For the assessment of the morphology, one picture in the center of each well (100 × magnification) was taken after twenty hours with an Olympus CKX53 phase-contrast microscope equipped with an XC30 CCD camera (Olympus NV, Antwerp, Belgium). The number of branched and ameboid cells was counted with the cell counter plugin of ImageJ.

BV-2 cells [2] = assay: Immunoblotting (NF-kB p65, IκBα, NIK); format: cell-based, murine
Experimental: To assess nuclear translocation of NF-kB, cells were lysed after 20 h using the NE-PER protocol (Thermo Scientific). Using this kit, the cytoplasmic and nuclear protein fractions are separated from each other. To asses IκBα expression, cells were lysed with RIPA buffer. Protein content of the lysates was determined using the modified Lowry assay (Thermo Scientific). Proteins (20 µg) were separated using an Any kD gel (SDS-PAGE) and transferred to a nitrocellulose membrane (BioRad, Temse, Belgium). Aspecific binding sites were blocked for 30 min using TBS + 1% casein (BioRad, Temse, Belgium). Western blot was performed using the following primary polyclonal antibodies overnight (4 °C): anti-p65 NFkB (1/500), anti-IκBα (1/1000) and anti-β-actin (1/1000), β-tubulin (1/4000) and anti-Histon H3.3 (1/5000) were used as loading controls. Goat anti-rabbit-AP antibody was used for detection (1/10,000) (60 min). All antibodies were purchased at Thermo Scientific (Merelbeke, Belgium). Finally, the BCIP/NBT substrate was added and the results were analyzed using the GelDoc EZ imager and Image Lab software (BioRad, Temse, Belgium). TBS buffer was used for washing between the steps.

[3] = Chemical and protease-inactivated homogenate stability; format: in vitro ADME, ICR-CD-1 mice; details: for Remaining amount of PapRIV: 1 hour at 37°C
Experimental: The metabolization rate of the peptide varied between different biological matrices such as serum, brain tissue, liver tissue, kidney tissue and faeces. […] Different metabolites of the peptide could be identified. To exclude the possibility of non-enzymatic degradation, the chemical and protease-inactivated homogenate (by pre-heating the homogenate for 5 min at 95 °C) stability of the peptide was determined. Except for kidney tissue, PapRIV remained stable in protease-inactivated homogenates, pointing an enzymatic degradation in serum, liver, brain and faeces (Supplementary Table S1). In protease-inactivated kidney homogenate, approximately 45% of peptide loss after 60 min can be explained by protein interaction with some kidney specific proteins. In serum, six different metabolites were formed. The MS-spectra of the different metabolites formed and the metabolic profiles in different tissues are given in supplementary information (Supplementary Figs. S6, S7). DLPFEH is the main metabolite which is formed in all matrices, metabolization of the native peptide to this metabolite is the main contributor of the low half-lives observed in kidney tissue and serum (Supplementary Fig. S5). Also in faeces, the matrix in which PapRIV is produced by gut bacteria, metabolization to DLPFEH occurred.
Supplementary method S3: Tissue homogenate preparation
Preparation of Krebs-Henseleit buffer (pH 7.4) (KH-buffer)
The powdered medium was dissolved in 900 mL water while stirring. To this solution, 0.3790 g CaCl2×2H2O and 2.098 g NaHCO3 was subsequently added while stirring. NaOH or HCl was used to adjust to pH 7.4. This solution was then further diluted to 1000 mL using ultrapure […]
Preparation of tissue homogenates
- The liver (n = 1), kidneys (n = 6), brains (n = 3), colons (n = 4) and faeces (0.196 g) of ICR-CD-1 mice were collected.
- After cleaning and rinsing the tissues using ice-cold KH buffer, the tissues were cut in little pieces and transferred into a 50 mL tube to which 36 mL ice-cold KH buffer was added.
- The tissues were then homogenized with at tissue homogenizer.
- After the larger particles were allowed to settle for about 30 minutes at 5°C, approximately 25 mL of the middle layer was transferred into a 50 mL Falcon tube using a plastic pipette.
- After shaking the homogenates, the homogenates were dispensed into 2 mL Eppendorf tubes, and stored at -35°C until use.
- The protein content of the homogenates were determined using the Pierce Modified Lowry […]
- Just before use, the homogenates were diluted to a protein concentration of 0.6 mg/mL (i.e.
300 µg / 500 µL) with KH buffer.
- Into a 1.5 ml Protein LoBind tube, 900 µl of serum/tissue extract (500 µl of homogenate/serum and 400 µl of KH buffer, pH 7.4) was transferred.
- After temperature-equilibration at 37°C for 15 min while shaking at 750 rpm, 100 µl of peptide solution (0.1 mg/mL) was added followed by continued incubation at 37°C (while shaking), with […] aliquots taken after 0, 5, 10, 30 and 60 minutes.
- The aliquots were immediately transferred into 500 µl Protein LoBind Eppendorf tubes containing 100 µl of 1% V/V trifluoroacetic acid solution in water, heated for 5 minutes at 95°C, and cooled for 30 minutes in an ice-bath.
- The samples were then centrifuged at 16,000 g for 5 minutes at 5°C.
- The supernatants was then analyzed by UPLC-UV/MS.
Supplementary table S1: Chemical and protease-inactivated homogenate stability of PapRIV […]
Matrix Remaining amount of PapRIV (%)

## SDLPFEH [PapRIV, heptapeptide (SDLPFEH) quorum sensing peptide originating from the Bacillus cereus group; synthetic, purchased from GL Biochem]
BV-2 microglia cells
  IL-6 production: induced
  TNFα production: induced
BV-2 cells [1]
  fraction of ameboid cells: increased
BV-2 cells [2]; 20 h, n = 3
  NF-kB nuclear translocation: increased
BV-2 cells [2]; data not shown
  NIK expression: not observed
BV-2 cells [2]; n = 3
  IκBα levels: decreasing
[3]; Inactivated brain homogenate (pre-heated 5 min at 95 °C)
  Remaining amount of PapRIV: 101.0%
[3]; Inactivated colon homogenate (pre-heated 5 min at 95 °C)
  Remaining amount of PapRIV: 99.2%
[3]; Inactivated faeces homogenate (pre-heated 5 min at 95 °C)
  Remaining amount of PapRIV: 101.4%
[3]; Inactivated kidney homogenate (pre-heated 5 min at 95 °C)
  Remaining amount of PapRIV: 53.8%
[3]; Inactivated liver homogenate (pre-heated 5 min at 95 °C)
  Remaining amount of PapRIV: 101.6%
[3]; Inactivated serum (pre-heated 5 min at 95 °C)
  Remaining amount of PapRIV: 99.0%
[3]; KH-buffer (Krebs-Henseleit, pH 7.4), chemical stability
  Remaining amount of PapRIV: 99.8%
[3]; protease-inactivated kidney homogenate, after 60 min, explained by protein interaction
  peptide loss: approximately 45%
